For series [1], the target named is T1, human P2Y6 receptor (Homo sapiens, UniProt Q15077).
T1 construct: expressed in transfected cells
The series is described as follows: Inositol phosphate accumulation in 1321N1 astrocytoma cells overexpressing the human P2Y6 receptor. The format is cell-based. The following applies: 60 min, hexokinase/glucose present. The procedure: The following method was used for measuring inositol phosphate accumulation of the UDP analogs described within this example as drugs. 1321N1 astrocytoma cells, stably overexpressing the human P2Y6 receptor (Nicholas, et al., Mol. Pharmacol. 50, 224-229 (1996)), were seeded into 96 well plates (7500 cells/well) in DMEM-H supplemented with 10% FCS. After 48 hours, the growth media was replaced with inositol-free DMEM-H supplemented with 2.5% dialyzed FCS and [^3H]-inositol (0.2 uCi/well) to radiolabel hormone-responsive inositol phospholipid pools. Cells were stimulated 48 hours later. At the time of assay, the culture media was supplemented with 25 mM HEPES (pH 7.4) and 10 mM […] to prevent hydrolysis of [^3H]-inositol phosphates. In addition, hexokinase (0.03 U/well) and glucose (50 mM final concentration) was added to the cultures to provide an enzymatic mechanism for the depletion of nucleoside triphosphates contaminating drug solutions or released from cells prior to/or during cell stimulation reactions. Drugs were diluted in phosphate buffered saline containing hexokinase/glucose and incubated at 37° for 30 minutes prior to addition to cells. Reactions were terminated after 60 minutes by rapid aspiration of media followed by the addition of ice cold EDTA (1.0 mM) and incubation on ice for at least 15 minutes prior to resolution of [^3H]-inositol phosphates by ion exchange chromatography as described (Brown, et. al., supra).

Series [2] has as its system human nasal epithelial cells. The series is described as follows: Hydrolysis of [3H]UTP and [3H]UDP on human nasal epithelial cell surfaces. The following applies: for Nucleotide Hydrolysis MUCOSAL / Nucleotide Hydrolysis SEROSAL: 20 min incubation period, mean ± range of two experiments; for Nucleotide Hydrolysis SEROSAL: serosal surface. The format is in vitro ADME. The procedure:
(§1) Nasal monolayers were grown to confluence on 6.5 mm Transwells (Costar) as indicated above. The cells were washed twice and preincubated with 300 μl HEPES-buffered (pH, 7.4) DMEM medium for at least one hour prior to the addition of the [^3H]-nucleotides to ensure that any endogeneously released ATP was degraded. Incubations were initiated by addition of 2 μM [^3H]UTP or [^3H]UDP (0.5 μCi each) to either cell surface. Incubations were terminated at the indicated times by transferring the medium to a tube containing 30 μl 50 mM EDTA and boiled for 2 min. Nucleotides were separated by HPLC (Shimadzu Scientific Instruments, Inc., Columbia, Md.) via a strong anion exchange column (Rainin Instrument Co., Emeryville, Calif.) using a two solvent system consisting of buffer A (45 mM ammonium formate, pH 4.6) and buffer B (250 mM sodium phosphate, pH 2.7). A linear gradient was developed from 100% buffer A to 100% B during the first 25 min. The column then was eluted with 100% buffer B for the […] and with 100% buffer A for an additional 15 min from 45 to 60 min. Absorbance at 260 nm was monitored with a LSA UV detector (Shimadzu), and radioactivity was monitored on-line with a Flo-One detector (Packard Instrument Co., Meridien, Conn.). [^3H]Nucleotides and [^3H]nucleosides were quantitated as previously described. Id. Confluent polarized cells were incubated for 20 min at 37° C. in the presence of 1 μM (0.2 μCi) of [3H]UTP, [^3H]UDP, or [^3H]UDP combined with 100 μM ATP. All additions were to the mucosal bath (300 μl final volume). Incubations were terminated by transferring the mucosal medium to an Eppendorf tube containing 30 μl 50 mM EDTA, followed by boiling. [^3H]Species were separated by HPLC as indicated in Example 6. Hydrolysis of both [^3H]UTP and [^3H]UDP on the surface of human nasal epithelial cells was determined on both cell surfaces by the following procedures: primary cultures of HNE cells were grown to confluence on 6.5 mm Transwells as a polarized epithelium. The cells were washed twice with pre-warmed DMEM-HEPES medium (pH 7.4), and were pre-incubated for 1 hour at 37° C with 0.5 mL of medium added on each side. Incubations were initiated by the addition 50 μl of 10 μM (0.5 μCi) [^3H]UTP or [^3H]UDP on the indicated cell surface. Medium samples were collected during a 20 min incubation period and analyzed by HPLC as described in Example 6. The values represent the mean (±range from the mean) from two experiments performed with duplicate samples.

Test in series [3]: as above
The format is in vitro ADME. The following applies: human, pH 7.4; mucosal, time course; read-out: Half life (t½). The procedure:
as §1

For series [4], the system named is human nasal epithelial cells. The experiment in a line: Cytosolic Ca2+ measurement (Fura-2) in human nasal epithelial cells. The class given is cell-based. The procedure:
(§2) Human nasal epithelial cells were harvested from turbinates using protease XIV (Sigma, St. Louis, Mo.) for 24-48 h at 4° C., as previously described. R. Wu, et al., Am. Rev. Respir. Dis. 132, 311-320 (1985). Cytosolic Ca^2+ and inositol phosphate measurements were made on nasal cell monolayers plated on porous Transwell Col filters (pore diameter 0.45 μm; Costar, Cambridge, Mass.) and maintained in Ham's F12 media supplemented with 10 ng/mL epidermal growth factor, 3.75 ng/mL endothelial cell growth factor, 500 ng/mL hydrocortisone, 5 ng/mL insulin, and 1 mM CaCl2 (Ham's F12+4X medium). Assays were carried out 7 to 10 days after seeding, a time coincident with the development of the maximal transepithelial potential difference according to N. Nakahata & T. K. Harden, Biochem. J. 241, 337-344 (1987).
(§3) Nasal cells grown on Transwell Col filters affixed to O-rings were maintained in F12+4X medium and studied 7-10 days after cell plating as described above. For Ca^2+i measurements, cells were loaded with Fura-2 and mounted in a miniature Ussing chamber over an objective of a microscope (Zeiss) coupled to a microfluorimeter, and cytosolic Ca^2+i levels were quantitated as previously described in Paradiso et al., supra. The fluorescence intensity ratio (excitation 340/380; emission λ 450 nm) was collected from a field of 30-40 nasal cells on monolayers and converted to Ca^2+ as previously described in E. H. Larsen et al, J. Physiol. 424, 109-131 (1990). For simultaneous measurements of Cl^− secretion, the transepithelial potential difference (TEP) was measured by a Voltage-Clamp/Pulse Generator (Model VCC600, Physiologic Instruments, San Diego, Calif.) and recorded on a two-channel recorder (Linsesis Model L200S). To calculate changes in Cl^− secretory current (ΔICl^−), a defined 1 sec current pulse was delivered across the monolayer every 10 sec. The nasal tissue was converted from its native Na^+ absorptive state to a Cl^− secretory state by exposing monolayers to a luminal medium containing 0 Na^+/low Cl^− and to a basolateral medium of Krebs bicarbonate Ringer solution.

Series [5] relates to human nasal epithelial cells. The series is described as follows: [3H]inositol phosphate formation in polarized human nasal epithelial cells. The class given is cell-based. The following applies: Homo sapiens, Epithelial cell, 10 min; added to mucosal medium, 10 min; read-out: EC50 for stimulating inositol phosphate formation. As for the experimental part: as §2
Confluent human nasal epithelial cells as described in Example 1 were labeled for 18 h in inositol-free DMEM containing 4.5g/L glucose and 5 μCi/mL of [^3H]myo-inositol. These cells were pre-incubated with 10 mM LiCl and challenged with agonists for an additional 10 min. No changes of medium were made subsequent to addition of [^3H]myo-inositol to avoid release of endogenous ATP from stressed cells. E. R. Lazarowski et al., Br. J Pharmacol. 116, 1619-1627 (1995). Incubations were terminated by addition of 5% ice-cold trichloroacetic acid and the resultant [^3H]inositol phosphates were separated on Dowex AG1-X8 columns as described in A. M. Paradiso et al., Nature 377, 643-646 (1995).

Series [6] relates to human nasal epithelial cells. The series is described as follows: Cl- secretion (transepithelial potential difference, Ussing chamber) in human nasal epithelial cells. The class given is cell-based. The procedure:
as §2, §3

What is called EC50 is the concentration that produces a half-maximal response. Broadly, the half-life is how long it takes for the measured level to halve.

T1 sequence (Q15077 whole entry): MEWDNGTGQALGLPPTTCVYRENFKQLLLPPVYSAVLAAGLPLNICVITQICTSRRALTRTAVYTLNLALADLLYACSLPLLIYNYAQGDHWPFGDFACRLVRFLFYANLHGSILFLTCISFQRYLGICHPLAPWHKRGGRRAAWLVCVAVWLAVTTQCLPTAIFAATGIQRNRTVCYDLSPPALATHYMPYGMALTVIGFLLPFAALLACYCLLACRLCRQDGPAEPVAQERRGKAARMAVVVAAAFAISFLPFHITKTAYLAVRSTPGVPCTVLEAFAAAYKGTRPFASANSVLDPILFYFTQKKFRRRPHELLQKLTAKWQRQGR

In turn, `CN(C)c1ccn([C@@H]2O[C@H](COP(=O)(O)OP(=O)(O)O)[C@@H](O)[C@H]2O)c(=O)n1` [Compound C, N,N-dimethylcytidine 5′-diphosphate] displayed an EC50 in series [1] of 41.7 µM.

Take `CCCCCCOc1ccn([C@@H]2O[C@H](COP(=O)(O)OP(=O)(O)O)[C@@H](O)[C@H]2O)c(=O)n1` [Compound B, 4-Hexyloxyuridine 5′-diphosphate]: in series [1], the EC50 stood at 3 µM.

As for `O=c1nc(N2CCOCC2)ccn1[C@@H]1O[C@H](COP(=O)(O)OP(=O)(O)O)[C@@H](O)[C@H]1O` [Compound F, 4-(N-morpholino)uridine 5′-diphosphate], in series [1], the EC50 turned out to be 55.1 µM.

`O=c1ccn([C@@H]2O[C@H](COP(=O)(O)OP(=O)(O)OP(=O)(O)O)[C@@H](O)[C@H]2O)c(=O)[nH]1` [[^3H]UTP] registered a Hydrolysis in series [2] (1 μM, 20 min, mucosal surface, 37° C.) of 73±16%. Also, the “Nucleotide Hydrolysis MUCOSAL” value in series [2] (mucosal surface) came out at 17 ± 22. Further, the “Nucleotide Hydrolysis SEROSAL” value in series [2] is 98 ± 11. Also, the half-life in series [3] stood at 14 ± 2 min.

In series [1], `O=c1nc(NC2CCCC2)ccn1[C@@H]1O[C@H](COP(=O)(O)OP(=O)(O)O)[C@@H](O)[C@H]1O` [Compound I, N-Cyclopentylcytidine 5′-diphosphate] had an EC50 of 8.6 µM.

Turning to `O=c1ccn([C@@H]2O[C@H](COP(=O)(O)OP(=O)(O)O)C[C@H]2O)c(=O)[nH]1` [Compound H, 3′-Deoxyuridine 5′-diphosphate], the response in series [1] was half-maximal at 2.1 µM (EC50).

Turning to `O=c1ccn([C@@H]2O[C@H](COP(=O)(O)OP(=O)(O)O)[C@@H](O)[C@H]2O)c(=O)[nH]1` [[^3H]UDP], the “Nucleotide Hydrolysis MUCOSAL” value in series [2] (mucosal surface) amounted to 87 ± 6. Also, the “Nucleotide Hydrolysis SEROSAL” value in series [2] is recorded as 70 ± 9. The half-life in series [3] is 27 ± 3 min.

In series [1], `CCCCCCSc1ccn([C@@H]2O[C@H](COP(=O)(O)OP(=O)(O)O)[C@@H](O)[C@H]2O)c(=O)n1` [Compound J, 4-Hexylthiouridine 5′-diphosphate] yielded a half-maximal effective concentration (EC50) of 1.8 µM.

On to `Nc1ncnc2c1ncn2[C@@H]1O[C@H](COP(=O)(O)OP(=O)(O)OP(=O)(O)O)[C@@H](O)[C@H]1O` [ATP, reference compound], for which the “Responses following multiple additions of UDP” value in series [4] (after multiple additions of UDP) is given as “retained”.

`CCCCCCNc1ccn([C@@H]2O[C@H](COP(=O)(O)OP(=O)(O)O)[C@@H](O)[C@H]2O)c(=O)n1` [Compound E, N-hexylcytidine 5′-diphosphate] came in with an EC50 in series [1] of 25.5 µM.

Take `O=c1ccn([C@@H]2O[C@H](COP(=O)(O)OP(=O)(O)OP(=O)(O)O)[C@@H](O)[C@H]2O)c(=O)[nH]1` [UTP, uridine 5′-triphosphate, reference compound]: the “Hydrolysis rate of mucosal UTP relative to mucosal UDP” value in series [2] (mucosal) is listed as 2-3 fold. Further, the EC50 in series [5] came out at 0.28 ± 0.035 µM. In addition, the ΔCa2+, UDP-treated cells in series [4] (UDP-treated cells, n=8) is 310 ± 35 nM. In addition, the “ΔCa2+, control cells” value in series [4] (control cells, n=19) came to 374 ± 24 nM. Besides, the “Cl- secretory response (ΔICl-), mucosal bath” value in series [6] (100 μM, mucosal) was 74±11 μA/cm^2. Also, the “Cl- secretory response (ΔICl-), serosal bath” value in series [6] (100 μM, serosal) worked out at 34±3 μA/cm^2. In addition, the ΔCl-, UDP-treated cells in series [6] (UDP-treated cells, n=8, the values are: ΔICl- (Cl- secretory current)) is -61 ± 10 µA/cm². Moreover, in series [6] (control cells, n=12), the “ΔICl-, control cells” value is −74±11 μA/cm^2.

The compound `COc1ccn([C@@H]2O[C@H](COP(=O)(O)OP(=O)(O)O)[C@@H](O)[C@H]2O)c(=O)n1` [Compound D, 4-Methoxyuridine 5′-diphosphate] had an EC50 in series [1] of 4.7 µM.

Regarding `Cc1cn([C@@H]2O[C@H](COP(=O)(O)OP(=O)(O)O)[C@@H](O)[C@H]2O)c(=O)[nH]c1=O` [Compound A, 5-Methyluridine 5′-diphosphate], a half-maximal response in series [1] (EC50) required 0.5 µM.

`O=c1[nH]c(=O)n([C@@H]2O[C@H](COP(=O)(O)OP(=O)(O)O)[C@@H](O)[C@H]2O)cc1C#Cc1ccccc1` [Compound G, 5-(Phenylethynyl)uridine 5′-diphosphate]: the EC50 in series [1] was 0.02 µM.

These data come from patent publication US6451288B1, “Method of treating lung diseases with uridine 5′-diphosphate and analogs thereof” (The University of North Carolina at Chapel Hill, priority 1997, dated 2002).
